Source: publication PMC4770306, “Structure-Based Identification of Inhibitory Fragments Targeting the p300/CBP-Associated Factor Bromodomain” (Journal of Medicinal Chemistry, 2016)
pIC50, pKd: −log10 of the molar value.

Columns and labels:
Assay type in all cases: binding
PCAF bromodomain [1] = molecular target: T1, PCAF bromodomain (Homo sapiens, UniProt Q92831); assay: SPR (Biacore) of TINS fragment hits on immobilized PCAF; conditions: for pKd: SPR, 20 °C, six concentrations, aqueous buffer without DMSO; for LE: from SPR KD and heavy atom count
T1 construct: made in house
T1 sequence (Q92831 723-827 limits assumed): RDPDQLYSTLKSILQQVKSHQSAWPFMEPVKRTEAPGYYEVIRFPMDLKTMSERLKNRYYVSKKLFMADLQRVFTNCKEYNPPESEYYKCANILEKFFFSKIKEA
Procedure: Recombinant PCAF was biotinylated on the N-terminal AVI tag in vivo. Purified, biotinylated PCAF was captured onto a NeutraAvidin-coated CM5 sensor chip surface in 20 mM sodium phosphate pH7.5, 150 mM NaCl, 2 mM DTT, and 0.05% P20 Tween. This buffer was subsequently used for all studies. The immobilization level was 10150 RU. All SPR experiments were performed using a Biacore T200 instrument at 20 °C. Fragment hits from TINS were directly solubilized in the running buffer. Each fragment was titrated at six different concentrations for KD determination. An acetyl-Lys 16 peptide derived from H4 was used to monitor the ligand binding capacity of the immobilized PCAF bromodomain at regular intervals.

PCAF bromodomain [2] = molecular target: T2, PCAF bromodomain (Homo sapiens, UniProt Q92831); assay: Thermal stability shift assay (DSF), PCAF bromodomain; conditions: compound 1 mM, protein 2 μM, average of triplicates
T2 construct: The PCAF bromodomain (aa 715–831) containing an N-terminal His6-tag was recombinantly expressed in Escherichia coli Rosetta; His6 (N, cleaved yes); made in house; host or cells: Escherichia coli Rosetta
T2 sequence (Q92831 715-831): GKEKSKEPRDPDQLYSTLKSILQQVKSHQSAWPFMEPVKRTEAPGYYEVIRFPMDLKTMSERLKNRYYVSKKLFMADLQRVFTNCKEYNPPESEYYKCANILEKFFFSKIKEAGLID

ATAD2A = molecular target: T3, ATAD2A (Homo sapiens, UniProt Q6PL18); assay: Alphascreen assay ATAD2A
T3 sequence (Q6PL18 1-1390): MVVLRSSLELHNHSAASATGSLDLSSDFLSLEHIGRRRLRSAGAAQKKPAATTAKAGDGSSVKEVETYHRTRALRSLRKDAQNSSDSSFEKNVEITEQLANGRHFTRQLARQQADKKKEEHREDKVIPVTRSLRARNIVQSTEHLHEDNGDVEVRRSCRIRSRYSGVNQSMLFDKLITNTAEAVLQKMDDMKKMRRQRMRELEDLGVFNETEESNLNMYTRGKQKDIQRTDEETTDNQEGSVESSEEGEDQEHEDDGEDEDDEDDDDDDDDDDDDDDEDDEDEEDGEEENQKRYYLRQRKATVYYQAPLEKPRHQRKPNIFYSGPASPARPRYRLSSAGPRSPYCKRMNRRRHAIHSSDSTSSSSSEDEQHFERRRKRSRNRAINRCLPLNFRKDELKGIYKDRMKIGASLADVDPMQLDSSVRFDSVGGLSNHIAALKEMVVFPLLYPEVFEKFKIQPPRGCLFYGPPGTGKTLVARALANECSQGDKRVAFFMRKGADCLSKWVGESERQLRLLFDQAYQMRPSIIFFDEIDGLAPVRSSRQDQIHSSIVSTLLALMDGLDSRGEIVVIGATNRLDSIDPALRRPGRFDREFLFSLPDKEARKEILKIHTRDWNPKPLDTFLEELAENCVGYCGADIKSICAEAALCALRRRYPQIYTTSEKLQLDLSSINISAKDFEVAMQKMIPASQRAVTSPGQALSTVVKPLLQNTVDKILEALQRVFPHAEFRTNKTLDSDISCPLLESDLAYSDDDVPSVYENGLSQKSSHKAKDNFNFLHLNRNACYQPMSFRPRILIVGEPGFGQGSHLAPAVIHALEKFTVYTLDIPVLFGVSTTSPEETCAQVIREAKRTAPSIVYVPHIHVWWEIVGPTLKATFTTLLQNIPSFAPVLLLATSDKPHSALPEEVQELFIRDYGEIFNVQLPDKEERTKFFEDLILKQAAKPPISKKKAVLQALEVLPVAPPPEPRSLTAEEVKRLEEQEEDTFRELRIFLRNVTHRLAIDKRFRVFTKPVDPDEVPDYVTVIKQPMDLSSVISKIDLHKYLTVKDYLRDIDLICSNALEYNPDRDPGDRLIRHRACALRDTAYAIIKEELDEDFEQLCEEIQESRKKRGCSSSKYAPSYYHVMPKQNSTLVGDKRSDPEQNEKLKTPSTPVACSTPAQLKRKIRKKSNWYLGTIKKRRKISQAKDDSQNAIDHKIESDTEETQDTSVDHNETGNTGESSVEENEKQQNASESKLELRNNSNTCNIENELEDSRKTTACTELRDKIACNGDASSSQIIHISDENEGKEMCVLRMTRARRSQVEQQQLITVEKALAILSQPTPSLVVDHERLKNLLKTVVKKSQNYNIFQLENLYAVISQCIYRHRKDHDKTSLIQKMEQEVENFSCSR

BAZ1BA = molecular target: T4, BAZ1BA (Homo sapiens, UniProt Q9UIG0); assay: Alphascreen assay BAZ1BA
T4 sequence (Q9UIG0 1-1483): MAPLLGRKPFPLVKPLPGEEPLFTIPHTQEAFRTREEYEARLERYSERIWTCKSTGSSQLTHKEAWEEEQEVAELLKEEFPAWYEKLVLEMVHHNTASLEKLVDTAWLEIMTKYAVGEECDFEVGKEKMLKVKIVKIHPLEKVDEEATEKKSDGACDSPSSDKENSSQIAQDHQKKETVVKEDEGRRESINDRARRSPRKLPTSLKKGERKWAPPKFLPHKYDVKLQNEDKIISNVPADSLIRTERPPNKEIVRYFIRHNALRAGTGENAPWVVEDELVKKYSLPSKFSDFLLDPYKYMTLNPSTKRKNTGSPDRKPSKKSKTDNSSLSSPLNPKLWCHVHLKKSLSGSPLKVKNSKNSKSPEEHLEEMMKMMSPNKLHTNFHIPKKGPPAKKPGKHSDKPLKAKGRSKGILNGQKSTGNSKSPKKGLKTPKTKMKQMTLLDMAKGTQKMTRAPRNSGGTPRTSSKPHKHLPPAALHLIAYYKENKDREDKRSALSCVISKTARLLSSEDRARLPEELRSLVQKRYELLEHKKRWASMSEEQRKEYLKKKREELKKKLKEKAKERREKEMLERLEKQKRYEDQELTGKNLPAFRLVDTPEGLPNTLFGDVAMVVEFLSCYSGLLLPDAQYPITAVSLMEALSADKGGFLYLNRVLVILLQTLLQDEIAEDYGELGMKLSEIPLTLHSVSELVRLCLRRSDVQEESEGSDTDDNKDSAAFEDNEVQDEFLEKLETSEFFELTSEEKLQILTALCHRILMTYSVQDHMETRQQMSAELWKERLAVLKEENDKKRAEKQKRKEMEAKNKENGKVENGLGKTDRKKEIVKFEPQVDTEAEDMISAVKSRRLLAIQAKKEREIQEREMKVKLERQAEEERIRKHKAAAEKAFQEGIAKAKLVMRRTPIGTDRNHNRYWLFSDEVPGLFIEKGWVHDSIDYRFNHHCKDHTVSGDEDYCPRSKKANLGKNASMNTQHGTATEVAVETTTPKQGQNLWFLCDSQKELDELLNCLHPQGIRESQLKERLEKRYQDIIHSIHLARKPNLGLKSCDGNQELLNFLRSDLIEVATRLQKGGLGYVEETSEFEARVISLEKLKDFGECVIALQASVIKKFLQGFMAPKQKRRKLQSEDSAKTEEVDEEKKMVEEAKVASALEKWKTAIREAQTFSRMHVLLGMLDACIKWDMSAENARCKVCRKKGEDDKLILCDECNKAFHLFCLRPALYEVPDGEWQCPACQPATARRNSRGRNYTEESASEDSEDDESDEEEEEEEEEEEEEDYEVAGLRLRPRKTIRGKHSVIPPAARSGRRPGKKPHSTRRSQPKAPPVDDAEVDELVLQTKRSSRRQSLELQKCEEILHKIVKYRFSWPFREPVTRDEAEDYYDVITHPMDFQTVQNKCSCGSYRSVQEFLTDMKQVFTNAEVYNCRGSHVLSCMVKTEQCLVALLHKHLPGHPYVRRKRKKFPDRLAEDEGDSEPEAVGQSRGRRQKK

BAZ2BA = BAZ2BA (Homo sapiens, UniProt Q9UIF8); assay: Alphascreen assay BAZ2BA
BRD9A = molecular target: T5, BRD9A (Homo sapiens, UniProt Q9H8M2); assay: Alphascreen assay BRD9A; conditions: for % Inhibition at 25 µM / inhibition at 25 µM: BRD9A; for pIC50: read-out: BRD9 IC50
T5 sequence (Q9H8M2 1-597): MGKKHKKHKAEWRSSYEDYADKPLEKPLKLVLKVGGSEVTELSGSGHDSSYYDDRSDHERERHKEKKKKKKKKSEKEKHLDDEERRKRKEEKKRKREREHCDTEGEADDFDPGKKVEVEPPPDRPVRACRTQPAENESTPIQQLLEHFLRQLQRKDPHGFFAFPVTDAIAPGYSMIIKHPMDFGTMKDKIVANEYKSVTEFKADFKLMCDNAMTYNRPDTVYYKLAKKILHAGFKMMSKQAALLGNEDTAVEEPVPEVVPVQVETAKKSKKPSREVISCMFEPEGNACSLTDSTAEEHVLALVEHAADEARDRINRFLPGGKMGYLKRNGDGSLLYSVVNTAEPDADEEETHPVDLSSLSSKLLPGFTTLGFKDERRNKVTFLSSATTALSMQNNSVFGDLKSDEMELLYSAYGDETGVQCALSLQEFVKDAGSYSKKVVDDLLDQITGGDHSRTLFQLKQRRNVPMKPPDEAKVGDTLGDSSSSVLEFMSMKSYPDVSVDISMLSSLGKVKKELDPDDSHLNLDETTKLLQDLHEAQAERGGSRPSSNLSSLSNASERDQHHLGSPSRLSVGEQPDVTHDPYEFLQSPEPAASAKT

BRPF3A = molecular target: T6, BRPF3A (Homo sapiens, UniProt Q9ULD4); assay: Alphascreen assay BRPF3A
T6 sequence (Q9ULD4 1-1205): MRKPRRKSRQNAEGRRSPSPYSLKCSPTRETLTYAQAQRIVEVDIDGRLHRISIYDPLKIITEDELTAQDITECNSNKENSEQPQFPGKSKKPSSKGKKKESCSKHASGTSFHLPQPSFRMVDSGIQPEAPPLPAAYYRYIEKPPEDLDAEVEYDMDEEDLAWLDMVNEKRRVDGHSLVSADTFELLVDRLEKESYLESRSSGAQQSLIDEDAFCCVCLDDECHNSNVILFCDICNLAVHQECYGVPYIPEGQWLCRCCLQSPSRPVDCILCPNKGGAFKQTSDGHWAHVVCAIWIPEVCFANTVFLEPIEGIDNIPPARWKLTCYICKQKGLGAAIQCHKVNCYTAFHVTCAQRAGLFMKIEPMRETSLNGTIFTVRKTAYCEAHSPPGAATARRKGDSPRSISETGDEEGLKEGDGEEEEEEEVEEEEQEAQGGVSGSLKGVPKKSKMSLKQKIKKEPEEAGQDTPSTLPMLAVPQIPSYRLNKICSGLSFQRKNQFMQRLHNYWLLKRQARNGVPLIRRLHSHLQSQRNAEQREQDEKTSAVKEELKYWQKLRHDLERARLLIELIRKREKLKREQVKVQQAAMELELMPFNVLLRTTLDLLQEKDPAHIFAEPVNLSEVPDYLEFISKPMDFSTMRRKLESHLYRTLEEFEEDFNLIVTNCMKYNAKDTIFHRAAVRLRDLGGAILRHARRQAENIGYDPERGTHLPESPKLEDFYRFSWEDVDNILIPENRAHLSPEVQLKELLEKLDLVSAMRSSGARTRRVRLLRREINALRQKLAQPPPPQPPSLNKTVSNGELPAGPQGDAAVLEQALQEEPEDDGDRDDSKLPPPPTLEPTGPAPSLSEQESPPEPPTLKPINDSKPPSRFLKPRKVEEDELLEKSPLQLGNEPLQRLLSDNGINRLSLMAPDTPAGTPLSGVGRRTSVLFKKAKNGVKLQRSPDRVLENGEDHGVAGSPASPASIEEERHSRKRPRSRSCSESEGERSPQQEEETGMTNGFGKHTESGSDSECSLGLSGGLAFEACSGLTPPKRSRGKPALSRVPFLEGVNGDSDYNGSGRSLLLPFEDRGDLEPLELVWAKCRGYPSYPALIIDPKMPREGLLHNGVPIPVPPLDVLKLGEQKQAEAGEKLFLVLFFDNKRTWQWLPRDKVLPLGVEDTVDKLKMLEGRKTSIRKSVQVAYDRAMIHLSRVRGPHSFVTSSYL

CECR2A = CECR2A (Homo sapiens, UniProt Q9BXF3); assay: Alphascreen assay CECR2A
PCAF bromodomain [3] = molecular target: T2, PCAF bromodomain; assay: Isothermal titration calorimetry (ITC) with PCAF; conditions: from ITC Kd

CECR2A, sequence (Q9BXF3 whole entry): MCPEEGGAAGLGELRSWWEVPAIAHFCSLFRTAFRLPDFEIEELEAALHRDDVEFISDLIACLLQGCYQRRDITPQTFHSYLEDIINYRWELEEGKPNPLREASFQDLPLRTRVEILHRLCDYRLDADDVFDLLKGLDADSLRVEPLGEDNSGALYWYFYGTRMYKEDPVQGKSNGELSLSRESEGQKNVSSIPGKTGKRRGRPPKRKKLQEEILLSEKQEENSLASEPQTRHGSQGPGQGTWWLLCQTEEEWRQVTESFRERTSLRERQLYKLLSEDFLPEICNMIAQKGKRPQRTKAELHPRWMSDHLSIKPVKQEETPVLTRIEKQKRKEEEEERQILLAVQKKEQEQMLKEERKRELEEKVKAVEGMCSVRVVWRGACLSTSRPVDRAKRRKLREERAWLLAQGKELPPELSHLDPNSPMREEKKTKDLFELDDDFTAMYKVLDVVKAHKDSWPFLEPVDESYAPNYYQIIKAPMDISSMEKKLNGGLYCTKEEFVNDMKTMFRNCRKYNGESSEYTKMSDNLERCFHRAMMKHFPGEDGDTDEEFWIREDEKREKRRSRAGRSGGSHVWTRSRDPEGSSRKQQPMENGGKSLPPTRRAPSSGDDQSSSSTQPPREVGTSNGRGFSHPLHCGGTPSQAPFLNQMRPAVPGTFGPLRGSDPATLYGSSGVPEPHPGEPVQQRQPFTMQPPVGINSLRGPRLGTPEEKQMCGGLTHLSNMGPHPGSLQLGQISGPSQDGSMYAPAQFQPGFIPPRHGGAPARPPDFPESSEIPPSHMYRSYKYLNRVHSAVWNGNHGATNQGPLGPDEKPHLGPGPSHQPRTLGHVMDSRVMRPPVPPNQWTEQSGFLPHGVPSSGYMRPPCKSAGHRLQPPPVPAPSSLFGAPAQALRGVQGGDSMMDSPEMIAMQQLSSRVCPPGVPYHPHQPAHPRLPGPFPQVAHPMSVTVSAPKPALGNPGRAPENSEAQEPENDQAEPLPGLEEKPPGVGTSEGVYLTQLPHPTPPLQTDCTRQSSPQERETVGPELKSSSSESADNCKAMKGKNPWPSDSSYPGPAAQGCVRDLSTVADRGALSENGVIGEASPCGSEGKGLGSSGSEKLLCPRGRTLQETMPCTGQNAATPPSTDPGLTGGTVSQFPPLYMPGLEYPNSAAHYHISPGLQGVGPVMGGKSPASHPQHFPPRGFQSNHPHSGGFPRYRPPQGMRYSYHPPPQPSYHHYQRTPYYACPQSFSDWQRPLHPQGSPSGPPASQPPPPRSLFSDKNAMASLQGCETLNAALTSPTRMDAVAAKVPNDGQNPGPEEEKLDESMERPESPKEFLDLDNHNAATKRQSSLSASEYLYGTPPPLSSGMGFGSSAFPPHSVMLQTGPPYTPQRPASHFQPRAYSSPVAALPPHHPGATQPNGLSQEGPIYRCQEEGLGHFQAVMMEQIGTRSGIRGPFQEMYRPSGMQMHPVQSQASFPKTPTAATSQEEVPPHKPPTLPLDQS
BAZ2BA, sequence (Q9UIF8 whole entry): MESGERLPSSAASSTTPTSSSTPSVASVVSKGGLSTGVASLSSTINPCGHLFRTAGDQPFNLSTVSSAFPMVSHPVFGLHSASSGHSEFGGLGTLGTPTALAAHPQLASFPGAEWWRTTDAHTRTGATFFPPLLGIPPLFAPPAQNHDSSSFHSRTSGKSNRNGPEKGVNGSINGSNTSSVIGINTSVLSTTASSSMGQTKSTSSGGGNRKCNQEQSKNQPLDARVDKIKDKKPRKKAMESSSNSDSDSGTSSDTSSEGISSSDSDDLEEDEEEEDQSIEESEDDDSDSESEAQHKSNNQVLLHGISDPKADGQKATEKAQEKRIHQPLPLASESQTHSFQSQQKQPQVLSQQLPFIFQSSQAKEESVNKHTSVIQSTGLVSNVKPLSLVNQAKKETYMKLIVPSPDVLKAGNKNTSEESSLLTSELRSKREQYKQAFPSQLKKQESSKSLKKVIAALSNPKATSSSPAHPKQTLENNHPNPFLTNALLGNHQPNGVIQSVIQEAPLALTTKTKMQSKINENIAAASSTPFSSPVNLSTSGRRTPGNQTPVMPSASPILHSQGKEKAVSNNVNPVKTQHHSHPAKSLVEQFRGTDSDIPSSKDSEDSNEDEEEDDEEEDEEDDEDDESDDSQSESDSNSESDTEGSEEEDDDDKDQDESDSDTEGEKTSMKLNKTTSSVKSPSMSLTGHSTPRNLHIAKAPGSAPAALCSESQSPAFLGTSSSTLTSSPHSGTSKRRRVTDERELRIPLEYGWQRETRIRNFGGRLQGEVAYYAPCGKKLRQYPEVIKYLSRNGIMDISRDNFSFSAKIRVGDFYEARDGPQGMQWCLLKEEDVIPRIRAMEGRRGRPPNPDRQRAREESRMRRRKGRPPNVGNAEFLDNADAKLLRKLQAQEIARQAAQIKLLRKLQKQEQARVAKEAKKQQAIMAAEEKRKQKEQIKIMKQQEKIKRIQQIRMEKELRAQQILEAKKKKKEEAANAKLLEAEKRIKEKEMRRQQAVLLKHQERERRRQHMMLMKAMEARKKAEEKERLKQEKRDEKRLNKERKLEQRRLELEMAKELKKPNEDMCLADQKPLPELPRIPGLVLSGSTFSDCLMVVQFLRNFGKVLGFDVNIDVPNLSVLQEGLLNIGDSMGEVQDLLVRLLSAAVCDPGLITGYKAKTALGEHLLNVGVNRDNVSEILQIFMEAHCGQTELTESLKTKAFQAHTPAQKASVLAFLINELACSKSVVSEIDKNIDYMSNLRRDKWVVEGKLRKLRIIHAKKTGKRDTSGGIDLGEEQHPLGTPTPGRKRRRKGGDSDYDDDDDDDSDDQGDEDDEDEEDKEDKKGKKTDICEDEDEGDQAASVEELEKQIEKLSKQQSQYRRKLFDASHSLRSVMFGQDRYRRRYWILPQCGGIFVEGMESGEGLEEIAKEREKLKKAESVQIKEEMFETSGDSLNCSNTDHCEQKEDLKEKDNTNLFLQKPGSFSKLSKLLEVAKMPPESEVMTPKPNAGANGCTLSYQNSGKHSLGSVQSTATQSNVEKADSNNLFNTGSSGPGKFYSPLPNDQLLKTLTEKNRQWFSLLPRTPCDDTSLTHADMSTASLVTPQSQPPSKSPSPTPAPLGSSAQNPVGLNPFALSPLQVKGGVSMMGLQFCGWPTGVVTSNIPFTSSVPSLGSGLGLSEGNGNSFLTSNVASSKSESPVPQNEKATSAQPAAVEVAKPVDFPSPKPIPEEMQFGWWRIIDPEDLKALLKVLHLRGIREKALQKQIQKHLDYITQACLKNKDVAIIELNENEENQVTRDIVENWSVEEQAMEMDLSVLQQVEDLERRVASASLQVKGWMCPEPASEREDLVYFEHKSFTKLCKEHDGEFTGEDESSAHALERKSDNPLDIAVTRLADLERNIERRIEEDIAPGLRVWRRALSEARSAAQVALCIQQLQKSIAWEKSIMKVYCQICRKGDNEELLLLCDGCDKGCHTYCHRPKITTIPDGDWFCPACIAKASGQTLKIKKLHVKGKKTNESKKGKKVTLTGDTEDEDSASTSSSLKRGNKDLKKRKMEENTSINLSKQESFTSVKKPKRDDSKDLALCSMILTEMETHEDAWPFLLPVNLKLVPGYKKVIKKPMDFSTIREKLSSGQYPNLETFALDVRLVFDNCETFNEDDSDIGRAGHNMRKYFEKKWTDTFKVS

With `Cc1c(N)c(=O)n(-c2ccccc2)n1C` [compound 9] the pKd (PCAF bromodomain [1]) was 2.57 and the LE (PCAF bromodomain [1]) was 0.23.

Compound `NC1CCN(C(=O)C2CC2)CC1` [compound 10] has a pKd (PCAF bromodomain [1]) of 2.16 and an LE (PCAF bromodomain [1]) of 0.24.

Work on `Cc1nn(CCO)c2c1C(=O)CCC2` [compound 11] yielded a pKd (PCAF bromodomain [1]) of 3.31 and an LE (PCAF bromodomain [1]) of 0.32.

In the case of `CC(=O)Nc1ccc2c(C)cc(=O)n(C)c2c1` [compound 12, N-(1,4-dimethyl-2-oxo-1,2-dihydroquinolin-7-yl)acetamide], the “ΔTm (°C) at 1 mM (± SEM)” value (PCAF bromodomain [2]) was 2.6–2.9 °C, the inhibition at 25 µM (ATAD2A) was 2.4% and the inhibition at 25 µM (BAZ1BA) was 0.7%. For the same compound, the inhibition at 25 µM (BAZ2BA) was -2.6%, the “% Inhibition at 25 µM” value (BRD9A) was “strong inhibition” and the inhibition at 25 µM (BRD9A) was 82.8%. For the same compound, the pIC50 (BRD9A) was 4.90, the inhibition at 25 µM (BRPF3A) was 46.8% and the inhibition at 25 µM (CECR2A) was 38.7%.

Work on `Cc1cc(=O)n(C)c2cc(NS(C)(=O)=O)ccc12` [compound 13, N-(1,4-dimethyl-2-oxo-1,2-dihydroquinolin-7-yl)methanesulfonam] yielded an inhibition at 25 µM (ATAD2A) of 1.4%, an inhibition at 25 µM (BAZ1BA) of -0.2% and an inhibition at 25 µM (BAZ2BA) of 5.3%. The “% Inhibition at 25 µM” value (BRD9A) was “strong inhibition”, the inhibition at 25 µM (BRD9A) was 84.1% and the pIC50 (BRD9A) was 5.24. The inhibition at 25 µM (BRPF3A) was 28.7% and the inhibition at 25 µM (CECR2A) was 3.9%.

With `CNC(=O)c1cc(OCC(=O)Nc2ccccc2)ccc1OC1CCOCC1` [compound 14, N-methyl-5-(2-oxo-2-(phenylamino)ethoxy)-2-((tetrahydro-2H-pyran-4-yl)oxy)benzamide] the “ligand efficiency (LE)” value (PCAF bromodomain [3]) was 0.24.
